Assay results taken from US20070148660A1, “Treatment of maladaptive substance use with H-ras antagonists” (The Regents of the University of California, priority 2005, published 2007).

How the values were obtained:
Src kinase = details: 100 mM ethanol, 15 min, hippocampal slices
Procedure: (§1) Transverse hippocampal slices ([…]) were prepared from 10- to 12-week-old C57BL/6J mice. Slices were allowed to recover for 90 min in artificial cerebrospinal fluid (aCSF) saturated with 95% O2/5% CO2 containing (in mM): 126 NaCl, 1.2 KCl, 1.2 NaH2PO4, 1.2 MgCl2, 2.4 CaCl2, 18 NaHCO3, and 11 glucose. Following recovery, slices were treated with aCSF (control) or ethanol at room temperature, after which the slices were rinsed in cold aCSF, and used either for cross-linking experiments, for Ras activity assay, or for immunoprecipitation. In experiments using Tat-H-Ras DN or the Tat-peptide, the slices were pretreated with either aCSF (control) or 2 μM Tat-H-Ras DN or Tat-peptide for 2 hrs at room temperature, followed by ethanol treatments.
(§2) The treated slices were homogenized in ice-cold buffer containing 1% deoxycholate, protease and phosphatase inhibitors and (in mM): 250 sucrose, 20 Tris-HCl (pH 7.5), 2 EDTA and 10 EGTA. 500 μg of the protein was diluted with 1× immunoprecipitation buffer (1% Triton X-100 and (in mM): 150 NaCl, 10 Tris HCl (pH 7.4), 1 EDTA, 1 EGTA and 0.2 sodium orthovanadate) and incubated with 5 μg of the appropriate antibody, followed by an overnight incubation at 4° C. with protein G agarose beads. The beads were extensively washed, re-suspended in 2× sample buffer and boiled for 5-10 min. The samples were then subjected to SDS-PAGE followed by Western blotting with the appropriate antibodies.
(§3) Proteins were separated by SDS-PAGE and blotted onto a nitrocellulose membrane. After blocking, the membranes were incubated with the specific primary antibody, followed by horseradish peroxidase-conjugated secondary antibody. Detection was obtained followed by enhanced chemiluminescent reaction (Amersham Biosciences), and processed using the STORM PhosphoImager (Amersham Biosciences). Results were quantified by NIH Image 1.61.

adaptin β2 with TrkB = details: 100 mM ethanol, 15 min, hippocampal slices
Procedure: as §1, §2, §3

[1] = tested on: adaptin β2 with the AMPAR subunit GluR1; details: 100 mM ethanol, 15 min, hippocampal slices
Procedure: as §1, §2, §3

[2] = tested on: NR2A-adaptin β2 association; details: 100 mM ethanol, 15 min, L(-tk) cells NR1+NR2A + PSD-95
Procedure: (§4) L(−tk) were cultured on 100 mm plates. When cells reached 75% confluency, they were transfected with 5 μg of PSD95-GFP cDNA using LipofectAMINE PLUS in accordance with the manufacturer's instructions. 24 hrs after transfection, the expression of the NMDAR subunits NR1+NR2A or NR1+NR2B was induced with […] dexamethasone in DMEM containing 10% FBS, and 0.5 mM ketamine as previously described (21). After 3 days of induction, the cross-linking or immunoprecipitation studies were conducted. Homogenates were obtained as described in (17).
as §2
(§5) Proteins were separated by SDS-PAGE and blotted onto a nitrocellulose membrane. […] Results were quantified by NIH Image 1.61.

NR2B-adaptin association = details: 100 mM ethanol, 15 min, L(-tk) cells NR1+NR2B + PSD-95
Procedure: as §4, §2, §5

SMILES: CCO [ethanol]
- decrease in the levels of active phosphorylated Src (Src kinase): approximately 40%
- interaction between TrkB and adaptin β2 (adaptin β2 with TrkB): no change
- interaction between GluR1 and adaptin β2 [1]: no change
- association of NR2A with adaptin β2 [2]: increase
- NR2B-adaptin association (NR2B-adaptin association): no change
